# In patent US20090162457A1, “RESVERATROL AND/OR GRAPE LEAF EXTRACT AS I. A. ENDURANCE IMPROVER, ANTI-AGING AGENT, MUSCLE STRENGTH IMPROVER” (KAO CORPORATION, priority 2005, published 2009):
# Columns and labels:
# Format in all cases: in vivo
# Balb/c male mice = assay: Mice maximal swimming time measurement in an adjustable-current swimming pool (endurance-improving/anti-fatigue effect); conditions: Test 1; for Maximal swimming time: flow rate 7 L/min
# Method: An endurance-improving/anti-fatigue effect was evaluated in accordance with the mice maximal swimming time measurement (Reference: Am. J. Physiol. Regul. Integr. Comp. Physiol., 288, 708-715 (2005)) in an adjustable-current swimming pool. The pool used for this test made of transparent acryl (90 cm long×45 cm wide×45 cm deep) was filled with water to the depth of 38 cm and maintained at 34° C. by a heater. The current in the pool was generated by circulating water with a pump (“C-P60H”, product of Hitachi, Ltd.). The flow rate was regulated by opening and closing of a valve of a water flow meter (product of Tokyo Flow Meter Kenkyujo) connected to the pump. The flow rate was monitored by a current meter (“SV-101-25S”, product of Sanko Seimitsu Kogyo). As a test animal, five-week-old Balb/c male mice (Charles River) were used. They were habituated by preliminary rearing for 1 week under a predetermined rearing environment (23±2° C., light period: from 7:00 am to 7:00 pm). For the next one week, training was performed three times a week in order to accustom the mice to swimming (swimming for 30 minutes at a flow rate of 5 L/min on Day 1, and for 30 minutes at a flow rate of 6 L/min on Day 3 and Day 5). […] To prevent a difference between groups in the maximal swimming time, mice were classified into two groups each consisting of 8 mice, that is, a test diet group and control diet group. During this term, maximal swimming time measurement (7 L/min) and training (6 L/min, 30 minutes) were each conducted once a week.
# [1] = system: SAM-P1 male mice (senescence accelerated mice); assay: Maximal running time on treadmill (anti-aging effect, endurance)
# Method: (§1) After preliminary individual rearing of 13-week-old SAM-P1 male mice (senescence accelerated mice) and SAM-R1 male mice (ordinarily aged mice) for 5 weeks, they were habituated to treadmill running and their maximal running time was measured. The measurement was started after the mice were kept sedentary in the treadmill to accustom them to the environment. The belt speed was started at 10 m/min. The mice were caused to run for 5 minutes on the belt having a speed of 10 m/min, 5 minutes at a speed of 15 m/min, 60 minutes at a speed of […], 60 minutes at a speed of 22 m/min, 60 minutes at a speed of 24 m/min, 60 minutes at a speed of 26 m/min and then at a speed of 28 m/min. […] To avoid a difference in the maximal running time between strains, the mice were divided into three groups, that is, SAM-R1 control group, SAM-P1 control group, and SAM-P1 resveratrol group (each group consisting of 5 to 8 mice). Each mouse was exercised at 15 m/min for 30 minutes three times a week during the period of experiment. The maximal running time of each group was measured after rearing for 8 weeks. In addition, as energy metabolism at rest, oxygen consumption of each group was measured by breath analysis after rearing for 9 weeks. For this analysis, “Oxymax system” (product of Columbus Instruments) equipped with 8 chambers was used. […] From their weights, total muscle weight was determined.
# [2] = system: SAM-P1 male mice (senescence accelerated mice); assay: Energy metabolism at rest: oxygen consumption by breath analysis (Oxymax system)
# Method: as §1
# [3] = system: SAM-P1 male mice (senescence accelerated mice); assay: Total muscle weight (gastrocnemius, soleus, plantaris) per body weight
# Method: as §1
# [4] = system: SAM-P1 male mice (senescence accelerated mice); assay: Maximum muscle strength of extensor digitorum longus muscle under electrical stimulation
# Source text: After the preliminary individual rearing of 13-week-old SAM-P1 male mice (senescence accelerated mice) and SAM-R1 male mice (ordinarily aged mice) for 5 weeks, they were habituated to treadmill running. Then, they were divided into SAM-R1 control group, SAM-P1 control group, SAM-P1 exercise group, SAM-P1 resveratrol group/exercise (each group consisting of 5 mice) They were reared for 13 weeks on a diet prepared in accordance with the formulation shown in Table 9. Exercise at 15 m/min was imposed to each mouse of the exercise group for 30 minutes three times a week during the period of experiment. After rearing for 13 weeks, the mice were sacrificed for dissection. Their extensor digitorum longus muscle was fixed to a transducer (“FORT100”, product of World Precision Instruments, Inc.) in a Krebs solution (aeration condition: 95% oxygen, 5% carbon dioxide) of 37° C. and then, electrically stimulated (at 140 Hz for 0.5 msec), whereby the maximum muscle strength was measured.
compound,measurement,setting,value
"Oc1ccc(C=Cc2cc(O)cc(O)c2)cc1 [Resveratrol, 3,4′,5-trihydroxy-stilbene]",Maximal swimming time,"Balb/c male mice; after rearing for 10 weeks on diet with 0.2 mass % resveratrol, control diet 31.15 ± 2.57",44.80 ± 4.56 min
same,Maximal swimming time compared with control diet group (in words),"Balb/c male mice; after rearing for 10 weeks, 0.2 mass % resveratrol in diet",significantly extended the maximal swimming time
same,Maximal swimming time,"Balb/c male mice; before rearing (baseline), Balb/c male mice",28.50 ± 1.75 min
same,Maximal running time,"[1]; after rearing for 8 weeks on feed with 0.2% resveratrol, SAM-P1 control 100.0 ± 5.8",141.3 ± 19.7 min
same,Maximal running time compared with SAM-P1 control group (in words),"[1]; after rearing for 8 weeks, 0.2% resveratrol in feed",significantly long compared with that of the SAM-P1 control group
same,Oxygen consumption (average for 24 hours),"[2]; after rearing for 9 weeks on feed with 0.2% resveratrol, SAM-P1 control 46.9 ± 1.3",3.43 ± 0.258 L/h/kg
same,Oxygen consumption compared with SAM-P1 control group (in words),"[2]; after rearing for 9 weeks, 0.2% resveratrol in feed",significantly high compared with that of the SAM-P1 control group
same,Relative muscle weight (muscle weight per body weight),"[3]; after rearing for 10 weeks on feed with 0.2% resveratrol, SAM-P1 control 0.64 ± 0.02",0.81 ± 0.07%
same,Muscle weight compared with SAM-P1 control group (in words),"[3]; after rearing for 10 weeks, 0.2% resveratrol in feed",significantly large compared with that of the SAM-P1 control group
same,Maximum muscle strength of extensor digitorum longus muscle,"[4]; resveratrol (0.2% in feed) plus exercise, reared for 10 weeks per table title (13 weeks per text), SAM-P1 control 9.8 ± 0.3, SAM-P1 exercise 13.0 ± 1.8",15.0 ± 1.8 g
same,Maximum muscle strength compared with SAM-P1 control group (in words),[4]; resveratrol-containing feed (0.2%) plus exercise,significantly high
